This passage reports EC50 results from patent US20250122218A1, “MODULATORS OF CYSTIC FIBROSIS TRANSMEMBRANE CONDUCTANCE REGULATOR” (Vertex Pharmaceuticals Incorporated, priority 2022, published 2025).

What is called EC50 is the concentration needed to bring the measured effect to its halfway point.

The experiment deals with T1, CFTR in F508del/MF-HBE cells (Homo sapiens, UniProt P13569, DEL508-508).
T1 construct: human bronchial epithelial (HBE) cells derived from CF subjects heterozygous for F508del and a minimal function CFTR mutation; endogenous in cells; host or cells: primary human bronchial epithelial cells from CF subjects (F508del/MF-HBE)
T1 sequence (P13569 with tags, fused parts or gaps DEL508-508): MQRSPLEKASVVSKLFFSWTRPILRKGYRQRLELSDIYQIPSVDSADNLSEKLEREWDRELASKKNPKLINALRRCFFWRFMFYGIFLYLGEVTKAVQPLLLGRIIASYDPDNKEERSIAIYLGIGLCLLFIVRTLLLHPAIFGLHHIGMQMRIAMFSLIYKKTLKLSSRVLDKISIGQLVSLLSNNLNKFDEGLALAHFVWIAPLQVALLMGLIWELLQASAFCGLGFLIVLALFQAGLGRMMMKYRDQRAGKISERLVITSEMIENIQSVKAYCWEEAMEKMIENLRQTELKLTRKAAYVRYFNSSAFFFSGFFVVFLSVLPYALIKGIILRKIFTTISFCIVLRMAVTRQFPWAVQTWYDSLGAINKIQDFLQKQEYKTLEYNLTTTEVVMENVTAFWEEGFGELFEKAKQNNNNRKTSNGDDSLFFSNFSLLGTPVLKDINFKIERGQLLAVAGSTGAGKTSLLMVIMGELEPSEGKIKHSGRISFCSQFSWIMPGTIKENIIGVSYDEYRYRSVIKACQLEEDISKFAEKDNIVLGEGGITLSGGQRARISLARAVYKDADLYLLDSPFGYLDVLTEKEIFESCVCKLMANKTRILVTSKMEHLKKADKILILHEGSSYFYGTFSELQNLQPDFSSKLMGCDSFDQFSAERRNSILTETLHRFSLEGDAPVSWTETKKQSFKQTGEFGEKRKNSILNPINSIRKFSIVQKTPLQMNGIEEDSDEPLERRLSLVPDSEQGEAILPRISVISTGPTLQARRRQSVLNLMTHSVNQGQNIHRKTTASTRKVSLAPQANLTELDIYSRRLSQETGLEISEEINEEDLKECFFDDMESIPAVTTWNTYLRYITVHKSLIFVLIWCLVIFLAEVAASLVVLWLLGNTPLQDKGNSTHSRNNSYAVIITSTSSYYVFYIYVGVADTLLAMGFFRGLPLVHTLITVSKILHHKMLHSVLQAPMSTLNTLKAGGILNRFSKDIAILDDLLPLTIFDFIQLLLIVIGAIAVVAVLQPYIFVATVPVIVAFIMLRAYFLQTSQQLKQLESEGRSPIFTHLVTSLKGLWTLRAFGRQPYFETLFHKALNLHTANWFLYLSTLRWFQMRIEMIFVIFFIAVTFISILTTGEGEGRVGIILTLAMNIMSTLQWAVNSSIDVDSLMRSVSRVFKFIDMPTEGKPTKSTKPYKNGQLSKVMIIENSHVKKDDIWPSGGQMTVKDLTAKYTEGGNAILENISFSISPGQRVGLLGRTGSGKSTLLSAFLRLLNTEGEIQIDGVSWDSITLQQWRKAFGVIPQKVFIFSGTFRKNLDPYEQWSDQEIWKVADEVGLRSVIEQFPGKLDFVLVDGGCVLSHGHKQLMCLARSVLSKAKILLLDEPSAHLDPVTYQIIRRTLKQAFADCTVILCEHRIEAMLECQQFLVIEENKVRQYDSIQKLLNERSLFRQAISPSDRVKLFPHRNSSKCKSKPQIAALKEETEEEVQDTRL
Briefly: Ussing chamber assay of CFTR-mediated short-circuit currents (identification of potentiator compounds). In kind it is cell-based. The conditions noted are these: potentiator incubated 18-24 hours at 37° C. in combination with 10 μM corrector, in the presence of 20% human serum, CFTR-mediated ISC. The method, boiled down:
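Short-circuit current was measured in Ussing chambers at 37° C, Vhold 0 mV, 30 μM apical amiloride. CFTR current was defined as the forskolin (20 μM) response relative to the current remaining after BPO/GlyH-101/inhibitor 172 (20 μM each). Before recording, cells had 18-24 h exposure to test potentiators with 10 μM corrector compound in 20% human serum.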
Turning to `Nc1cc(C(F)(F)F)c2nc1-c1nnc(o1)[C@@](O)(C(F)(F)F)CCCCCC1(CCC1)C2=O` [Compound 48, (6R)-17-amino-6-hydroxy-6,15-bis(trifluoromethyl)spiro[19-oxa-3,4,18-triazatricyclo[12.3.1.12,5]nonadeca-1(18),2,4,14,16-pentaene-12,1′-cyclobutane]-13-one], the concentration for a half-maximal effect (EC50) was less than 500 nM.
The result for `Nc1cc(C(F)(F)F)c2nc1-c1nnc(o1)[C@@](O)(C(F)(F)F)CCCCCC1(CC1)C2=O` [Compound 49, (6R)-17-amino-6-hydroxy-6,15-bis(trifluoromethyl)spiro[19-oxa-3,4,18-triazatricyclo[12.3.1.12,5]nonadeca-1(18),2,4,14,16-pentaene-12,1′-cyclopropane]-13-one] reads less than 500 nM; that for `CC1(C)CCCCC[C@](O)(C(F)(F)F)C2=NN=C(O2)c2nc(c(C(F)(F)F)cc2N)C1` [Compound 50, (6R)-17-amino-12,12-dimethyl-6,15-bis(trifluoromethyl)-19-oxa-3,4,18-triazatricyclo[12.3.1.12,5]nonadeca-1(18),2,4,14,16-pentaen-6-ol], less than 500 nM.
Take `Nc1cc(C(F)(F)F)c2nc1-c1nnc(o1)C(O)(C(F)(F)F)CCCCN(Cc1ccccc1)C(=O)C2` (stereo not drawn) [Compound 51, 17-amino-11-benzyl-6-hydroxy-6,15-bis(trifluoromethyl)-19-oxa-3,4,11,18-tetrazatricyclo[12.3.1.12,5]nonadeca-1(18),2,4,14,16-pentaen-12-one]: the EC50 is less than 500 nM.
The value for `CC(C)N1CCCCC(O)(C(F)(F)F)C2=NN=C(O2)c2nc(c(C(F)(F)F)cc2N)CC1=O` (stereo not drawn) [Compound 52, 17-amino-6-hydroxy-11-isopropyl-6,15-bis(trifluoromethyl)-19-oxa-3,4,11,18-tetrazatricyclo[12.3.1.12,5]nonadeca-1(18),2,4,14,16-pentaen-12-one] was more than 1000 nM; that for `CN1CCCCC(O)(C(F)(F)F)C2=NN=C(O2)c2nc(c(C(F)(F)F)cc2N)CC1=O` (stereo not drawn) [Compound 53, 17-amino-6-hydroxy-11-methyl-6,15-bis(trifluoromethyl)-19-oxa-3,4,11,18-tetrazatricyclo[12.3.1.12,5]nonadeca-1(18),2,4,14,16-pentaen-12-one] was more than 1000 nM; that for `COC1CCCCc2ccc(F)c(c2)C(O)(C(F)(F)F)C2=NN=C(O2)c2nc1c(C(F)(F)F)cc2N` (stereo not drawn) [Compound 61, 20-Amino-8-fluoro-16-methoxy-6,18-bis(trifluoromethyl)-23-oxa-3,4,21-triazatetracyclo[15.3.1.12,5.17,11]tricosa-1(21),2,4,7(22),8,10,17,19-octaen-6-ol] was less than 500 nM.
The value for `COC1CCCCc2ccc(F)c(c2)C(O)(C(F)(F)F)C2=NN=C(O2)c2nc1c(C(F)(F)F)cc2N` (stereo not drawn) [Compound 62, 20-Amino-8-fluoro-16-methoxy-6,18-bis(trifluoromethyl)-23-oxa-3,4,21-triazatetracyclo[15.3.1.12,5.17,11]tricosa-1(21),2,4,7(22),8,10,17,19-octaen-6-ol] was less than 500 nM.
The result for `N#CC1CCCCc2cccc(c2)C(O)(C(F)(F)F)C2=NN=C(O2)c2nc1c(C(F)(F)F)cc2N` (stereo not drawn) [Compound 63, 20-amino-6-hydroxy-6,18-bis(trifluoromethyl)-23-oxa-3,4,21-triazatetracyclo[15.3.1.12,5.17,11]tricosa-1(21),2,4,7,9,11(22),17,19-octaene-16-carbonitrile] reads less than 500 nM; that for `N#CC1CCCCc2cccc(c2)C(O)(C(F)(F)F)C2=NN=C(O2)c2nc1c(C(F)(F)F)cc2N` (stereo not drawn) [Compound 64, 20-amino-6-hydroxy-6,18-bis(trifluoromethyl)-23-oxa-3,4,21-triazatetracyclo[15.3.1.12,5.17,11]tricosa-1(21),2,4,7,9,11(22),17,19-octaene-16-carbonitrile], less than 500 nM.
With `N#CC1CCCCc2ccc(F)c(c2)C(O)(C(F)(F)F)C2=NN=C(O2)c2nc1c(C(F)(F)F)cc2N` (stereo not drawn) [Compound 69, 20-Amino-8-fluoro-6-hydroxy-6,18-bis(trifluoromethyl)-23-oxa-3,4,21-triazatetracyclo[15.3.1.12,5.17,11]tricosa-1(21),2,4,7,9,11(22),17,19-octaene-16-carbonitrile], the concentration for a half-maximal effect (EC50) was less than 500 nM.
The value for `COc1ccc(CN2CCCCC[C@](O)(C(F)(F)F)C3=NN=C(O3)c3nc(c(C(F)(F)F)cc3N)C2=O)cc1` [Compound 76, (6R)-17-Amino-6-hydroxy-12-[(4-methoxyphenyl)methyl]-6,15-bis (trifluoromethyl)-19-oxa-3,4,12,18-tetrazatricyclo [12.3.1.12,5] nonadeca-1(18),2,4,14,16-pentaen-13-one] was less than 500 nM.
The result for `CC(C)(C)CN1CCCCC[C@](O)(C(F)(F)F)C2=NN=C(O2)c2nc(c(C(F)(F)F)cc2N)C1=O` [Compound 80, (6R)-17-Amino-12-(2,2-dimethylpropyl)-6-hydroxy-6,15-bis (trifluoromethyl)-19-oxa-3,4,12,18-tetrazatricyclo [12.3.1.12,5] nonadeca-1(18),2,4,14,1 6-pentaen-13-one] reads less than 500 nM; that for `Nc1cc(C(F)(F)F)c2nc1-c1nnc(o1)[C@@](O)(C(F)(F)F)CCCCCN(C1CCCCC1)C2=O` [Compound 81, (6R)-17-Amino-12-cyclohexyl-6-hydroxy-6,15-bis (trifluoromethyl)-19-oxa-3,4,12,18-tetrazatricyclo [12.3.1.12,5] nonadeca-1(18),2,4,14,1 6-pentaen-13-one], less than 500 nM.
Turning to `CCCN1CCCCC[C@](O)(C(F)(F)F)C2=NN=C(O2)c2nc(c(C(F)(F)F)cc2N)C1=O` [Compound 82, (6R)-17-Amino-6-hydroxy-12-propyl-6,15-bis (trifluoromethyl)-19-oxa-3,4,12,18-tetrazatricyclo [12.3.1.12,5] nonadeca-1(18),2,4,14,1 6-pentaen-13-one], the concentration giving a half-maximal response (EC50) was less than 500 nM.
For `Nc1cc(C(F)(F)F)c2nc1-c1nnc(o1)[C@@](O)(C(F)(F)F)CCCCCN(CC1CC1)C2=O` [Compound 83, (6R)-17-Amino-12-(cyclopropylmethyl)-6-hydroxy-6,15-bis(trifluoromethyl)-19-oxa-3,4,12,18-tetrazatricyclo [12.3.1.12,5] nonadeca-1(18),2,4,14,1 6-pentaen-13-one], the concentration giving a half-maximal response (EC50) was less than 500 nM.
The value for `Nc1cc(C(F)(F)F)c2nc1-c1nnc(o1)[C@@](O)(C(F)(F)F)CCCCCN(C1CC(F)(F)C1)C2=O` [Compound 84, (6R)-17-Amino-12-(3,3-difluorocyclobutyl)-6-hydroxy-6,15-bis (trifluoromethyl)-19-oxa-3,4,12,18-tetrazatricyclo [12.3.1.12,5] nonadeca-1(18),2,4,14,1 6-pentaen-13-one] was less than 500 nM; that for `CC(C)(C)N1CCCCC[C@](O)(C(F)(F)F)C2=NN=C(O2)c2nc(c(C(F)(F)F)cc2N)C1=O` [Compound 85, (6R)-17-Amino-12-tert-butyl-6-hydroxy-6,15-bis(trifluoromethyl)-19-oxa-3,4,12,18-tetrazatricyclo [12.3.1.12,5] nonadeca-1(18),2,4,14,1 6-pentaen-13-one] was less than 500 nM; that for `Nc1cc(C(F)(F)F)c2nc1-c1nnc(o1)[C@@](O)(C(F)(F)F)CCCCCN(C13CC(C1)C3)C2=O` [Compound 86, (6R)-17-Amino-12-(1-bicyclo[1.1.1]pentanyl)-6-hydroxy-6,15-bis (trifluoromethyl)-19-oxa-3,4,12,18-tetrazatricyclo [12.3.1.12,5] nonadeca-1(18),2,4,14,1 6-pentaen-13-one] was less than 500 nM.
Consider `Nc1cc(C(F)(F)F)c2nc1-c1nnc(o1)[C@@](O)(C(F)(F)F)CCCCCN(C1CC3(CCC3)C1)C2=O` [Compound 87, (6R)-17-Amino-6-hydroxy-12-spiro[3.3]heptan-2-yl-6,15-bis(trifluoromethyl)-19-oxa-3,4,12,18-tetrazatricyclo [12.3.1.12,5] nonadeca-1(18),2,4,14,1 6-pentaen-13-one], for which the concentration giving a half-maximal response (EC50) was less than 500 nM.
The value for `CC[C@H](C)N1CCCCC[C@](O)(C(F)(F)F)C2=NN=C(O2)c2nc(c(C(F)(F)F)cc2N)C1=O` [Compound 88, (6R)-17-Amino-6-hydroxy-12-[(1S)-1-methylpropyl]-6,15-bis (trifluoromethyl)-19-oxa-3,4,12,18-tetrazatricyclo [12.3.1.12,5] nonadeca-1(18),2,4,14,1 6-pentaen-13-one] was less than 500 nM; that for `CC[C@@H](C)N1CCCCC[C@](O)(C(F)(F)F)C2=NN=C(O2)c2nc(c(C(F)(F)F)cc2N)C1=O` [Compound 89, (6R)-17-Amino-6-hydroxy-12-[(1R)-1-methylpropyl]-6,15-bis (trifluoromethyl)-19-oxa-3,4,12,18-tetrazatricyclo [12.3.1.12,5] nonadeca-1(18),2,4,14,1 6-pentaen-13-one] was less than 500 nM; that for `CCC(C)(C)N1CCCCC[C@](O)(C(F)(F)F)C2=NN=C(O2)c2nc(c(C(F)(F)F)cc2N)C1=O` [Compound 90, (6R)-17-Amino-12-(1,1-dimethylpropyl)-6-hydroxy-6,15-bis(trifluoromethyl)-19-oxa-3,4,12,18-tetrazatricyclo [12.3.1.12,5] nonadeca-1(18),2,4,14,1 6-pentaen-13-one] was less than 500 nM.
The value for `Nc1cc(C(F)(F)F)c2nc1-c1nnc(o1)[C@@](O)(C(F)(F)F)CCCCCN(C1CCC(F)(F)CC1)C2=O` [Compound 91, (6R)-17-Amino-12-(4,4-difluorocyclohexyl)-6-hydroxy-6,15-bis (trifluoromethyl)-19-oxa-3,4,12,18-tetrazatricyclo [12.3.1.12,5] nonadeca-1(18),2,4,14,1 6-pentaen-13-one] was less than 500 nM.
